What follows are compounds tested against USP1 (Homo sapiens, UniProt O94782) (assay: Biochemical Assay for USP1 Inhibition (Ub-Rho 110 fluorescence)). Settings: Table 5; 30 min preincubation, Enzyme 0.025 nM, Substrate Ub-Rho 110 25 nM; read-out: IC50 (μm).
Outline: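 USP1 at 0.025 nM, preincubated 30 min with compound (25 μM to 1.3 nM, 10-point), then Ub-Rho 110 at 25 nM (<<Km) in Tris-HCl pH 8.0, 1 mM GSH, 0.03% BGG, 0.01% Triton X-100. Fluorescence read kinetically over 11 min; % inhibition versus no-enzyme and DMSO controls, IC50 from 4-parameter logistic fit.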

USP1, sequence (O94782 whole entry): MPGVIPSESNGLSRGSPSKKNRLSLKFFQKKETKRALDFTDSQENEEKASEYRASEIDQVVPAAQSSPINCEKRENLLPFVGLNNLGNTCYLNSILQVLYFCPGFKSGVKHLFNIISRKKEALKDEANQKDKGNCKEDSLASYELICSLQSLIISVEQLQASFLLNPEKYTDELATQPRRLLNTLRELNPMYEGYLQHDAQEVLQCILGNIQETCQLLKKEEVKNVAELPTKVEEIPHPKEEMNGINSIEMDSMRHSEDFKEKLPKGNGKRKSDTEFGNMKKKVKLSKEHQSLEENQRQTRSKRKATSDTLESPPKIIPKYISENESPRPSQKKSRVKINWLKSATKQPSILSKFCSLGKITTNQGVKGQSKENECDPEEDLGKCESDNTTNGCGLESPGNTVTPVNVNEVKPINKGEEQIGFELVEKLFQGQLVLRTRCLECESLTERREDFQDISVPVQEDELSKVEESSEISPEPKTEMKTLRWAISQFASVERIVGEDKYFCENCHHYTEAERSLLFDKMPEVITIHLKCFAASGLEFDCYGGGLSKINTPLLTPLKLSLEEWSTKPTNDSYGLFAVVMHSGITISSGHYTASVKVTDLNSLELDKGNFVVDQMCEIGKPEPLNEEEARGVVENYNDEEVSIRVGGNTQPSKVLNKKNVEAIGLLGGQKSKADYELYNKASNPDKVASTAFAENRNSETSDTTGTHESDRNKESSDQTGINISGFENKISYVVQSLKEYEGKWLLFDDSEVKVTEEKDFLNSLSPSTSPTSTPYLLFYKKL
USP1, sequence (Q8TAF3 whole entry partner): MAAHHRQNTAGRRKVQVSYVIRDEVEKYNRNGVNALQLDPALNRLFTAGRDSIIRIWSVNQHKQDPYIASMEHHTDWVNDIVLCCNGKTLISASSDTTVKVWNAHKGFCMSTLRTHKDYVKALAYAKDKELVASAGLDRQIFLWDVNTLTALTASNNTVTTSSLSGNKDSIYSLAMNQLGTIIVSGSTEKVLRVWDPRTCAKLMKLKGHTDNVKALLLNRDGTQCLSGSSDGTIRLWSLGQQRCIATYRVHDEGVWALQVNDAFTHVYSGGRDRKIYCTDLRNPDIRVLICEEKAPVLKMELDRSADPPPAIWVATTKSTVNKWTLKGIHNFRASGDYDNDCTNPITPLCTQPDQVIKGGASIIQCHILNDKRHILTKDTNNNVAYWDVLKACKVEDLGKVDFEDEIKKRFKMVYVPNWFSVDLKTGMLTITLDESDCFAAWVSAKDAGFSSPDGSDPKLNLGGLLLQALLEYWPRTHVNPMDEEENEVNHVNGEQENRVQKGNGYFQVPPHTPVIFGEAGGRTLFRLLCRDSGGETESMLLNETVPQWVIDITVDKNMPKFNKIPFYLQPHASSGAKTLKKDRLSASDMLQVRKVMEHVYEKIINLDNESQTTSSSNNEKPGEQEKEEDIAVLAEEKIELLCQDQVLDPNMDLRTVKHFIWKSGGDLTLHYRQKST

Row | Structure (SMILES) | IC50 [µM]
1 | Cc1nc(-c2cccnc2C(C)C)c2n1C(C)CN(c1ccc(-c3nc(C(F)(F)F)cn3C)cc1)C2 (single isomer, unassigned) [Compound 72-1, 3-[-3,5-dimethyl-7-{4-[1-methyl-4-(trifluoromethyl)-1H-imidazol-2-yl]phenyl}-5H,6H,7H,8H-imidazo[1,5-a]pyrazin-1-yl]-2-(propan-2-yl)pyridine] | ≤ 1
2 | Cc1nc(-c2cccnc2C(C)C)c2n1CCN(c1ccc(-c3cnn(C4CCOCC4)c3)cc1)C2 [Compound 74, 3-(3-methyl-7-{4-[1-(oxan-4-yl)-1H-pyrazol-4-yl]phenyl}-5H,6H,7H,8H-imidazo[1,5-a]pyrazin-1-yl)-2-(propan-2-yl)pyridine] | 10 to 25
3 | Cc1cc(Cl)nn1-c1ccc(N2CCn3c(C)nc(-c4cccnc4OC(F)F)c3C2)cc1 [Compound 81, 3-{7-[4-(3-chloro-5-methyl-1H-pyrazol-1-yl)phenyl]-3-methyl-5H,6H,7H,8H-imidazo[1,5-a]pyrazin-1-yl}-2-(difluoromethoxy)pyridine] | ≤ 1
4 | Cc1nc(-c2cccnc2C(C)C)c2n1CCN(c1cnc(C#N)nc1)C2 [Compound 83, 5-{3-methyl-1-[2-(propan-2-yl)pyridin-3-yl]-5H,6H,7H,8H-imidazo[1,5-a]pyrazin-7-yl}pyrimidine-2-carbonitrile] | > 25
5 | Cc1nnnn1-c1ccc(N2CCn3c(C)nc(-c4cccnc4C(C)C)c3C2)cc1 [Compound 39, 3-{3-methyl-7-[4-(5-methyl-1H-1,2,3,4-tetrazol-1-yl)phenyl]-5H,6H,7H,8H-imidazo[1,5-a]pyrazin-1-yl}-2-(propan-2-yl)pyridine] | > 25
6 | Cc1nc(-c2cccnc2C(C)C)c2n1CCN(c1ccc(C3(O)COC3)cc1)C2 [Compound 46, 3-(4-{3-methyl-1-[2-(propan-2-yl)pyridin-3-yl]-5H,6H,7H,8H-imidazo[1,5-a]pyrazin-7-yl}phenyl)oxetan-3-ol] | > 25
7 | Cc1cnc(-c2ccc(N3CCn4c(C)nc(-c5cccnc5C(C)C)c4C3)cc2)o1 [Compound 65, 3-{3-methyl-7-[4-(5-methyl-1,3-oxazol-2-yl)phenyl]-5H,6H,7H,8H-imidazo[1,5-a]pyrazin-1-yl}-2-(propan-2-yl)pyridine] | ≤ 1
8 | Cc1nc(-c2cccnc2C(C)C)c2n1CCN(c1ccc(C(=O)N(C)C)cc1F)C2 [Compound 49, 3-fluoro-N,N-dimethyl-4-{3-methyl-1-[2-(propan-2-yl)pyridin-3-yl]-5H,6H,7H,8H-imidazo[1,5-a]pyrazin-7-yl}benzamide] | 10 to 25
9 | Cc1nc(-c2cccnc2C(C)C)c2n1CCN(c1ccc(F)cc1)C2 [Compound 5, 3-[7-(4-fluorophenyl)-3-methyl-5H,6H,7H,8H-imidazo[1,5-a]pyrazin-1-yl]-2-(propan-2-yl)pyridine] | > 25
10 | Cc1nc(-c2cccnc2C(C)C)c2n1CCN(c1ccc(-c3cnn(CC(C)C)c3)cc1)C2 [Compound 69, 3-(3-methyl-7-{4-[1-(2-methylpropyl)-1H-pyrazol-4-yl]phenyl}-5H,6H,7H,8H-imidazo[1,5-a]pyrazin-1-yl)-2-(propan-2-yl)pyridine] | 1 to 10
11 | Cc1nc(-c2cccnc2C(C)C)c2n1CCN(c1ccc(C(=O)N(C)C)cc1)C2 [Compound 50, N,N-dimethyl-4-{3-methyl-1-[2-(propan-2-yl)pyridin-3-yl]-5H,6H,7H,8H-imidazo[1,5-a]pyrazin-7-yl}benzamide] | 10 to 25
12 | Cc1nc(-c2cccnc2C(C)C)c2n1CCN(c1cnc(-c3nc(C(F)(F)F)cn3C)cn1)C2 [Compound 79, 2-{3-methyl-1-[2-(propan-2-yl)pyridin-3-yl]-5H,6H,7H,8H-imidazo[1,5-a]pyrazin-7-yl}-5-[1-methyl-4-(trifluoromethyl)-1H-imidazol-2-yl]pyrazine] | ≤ 1

Same assay, conditions: Table 6, additional compounds; 30 min preincubation, Enzyme 0.025 nM, Substrate Ub-Rho 110 25 nM; read-out: IC50

Row | Structure (SMILES) | IC50 [µM]
13 | Cc1nc(-c2cccnc2C(C)C)c2n1CC(=O)N(c1ccc(-c3nc(C(F)(F)F)cn3C)cc1)C2 [Compound C-3, 1-(2-isopropylpyridin-3-yl)-3-methyl-7-(4-(1-methyl-4-(trifluoromethyl)-1H-imidazol-2-yl)phenyl)-7,8-dihydroimidazo[1,5-a]pyrazin-6(5H)-one] | > 25
14 | Cc1nc(-c2ccccc2C(C)C)n2cc(N3CCC(c4nc(C(F)(F)F)cn4C)CC3)ccc12 [Compound C-4, 3-(2-isopropylphenyl)-1-methyl-6-(4-(1-methyl-4-(trifluoromethyl)-1H-imidazol-2-yl)piperidin-1-yl)imidazo[1,5-a]pyridine] | > 25

Reference: patent publication US20220073525A1, “COMPOSITIONS FOR INHIBITING UBIQUITIN SPECIFIC PROTEASE 1” (FORMA Therapeutics, Inc., priority 2019, published 2022)
